Experimental findings from ChEMBL document CHEMBL1201862, “PubChem BioAssay data set” (2004) are described below.

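Tested at 5 concentrations; 48 h exposure; 96-well plates; endpoints linearly interpolated, else capped at highest concentration. Abbreviation: GI50, concentration required for 50% inhibition of growth.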 Activity calls are given as the source filed them. No stated cut-off is given here; in the data, active = GI50 up to about 1.1 µM and inactive = higher.

Among the test systems are SF-295; MDA-MB-231; A498; Hs-578T; DU-145; TK-10; OVCAR-8; NCI-H460; OVCAR-5; MDA-MB-435; MCF7; SK-MEL-5; HOP-92; K562; NCI-H522; CCRF-CEM; SK-MEL-28; RPMI-8226; IGROV-1; SF-539.
What all share (assay): NCI anticancer screen, dose series, 48 h

In the case of `NNC1=NC(=O)NC(=O)C1`, the GI50 in the assay with SF-295, with MDA-MB-231, in the assay on A498, with Hs-578T, in the assay on DU-145 and in the assay with TK-10 was > 100 µM (inactive) in each case. In addition, the GI50 in the assay on OVCAR-8, in the assay on NCI-H460, in the assay on OVCAR-5, with MDA-MB-435, with MCF7 and with SK-MEL-5 was > 100 µM (inactive) each time. In addition, the GI50 in the assay with HOP-92 was 66.4 µM (inactive); in the assay on K562, > 100 µM (inactive); in the assay on NCI-H522 it was > 100 µM (inactive); in the assay with CCRF-CEM it was 68.1 µM (inactive); with SK-MEL-28 it was > 100 µM (inactive); with RPMI-8226, > 100 µM (inactive). Also, in the assay on IGROV-1, the GI50 was > 100 µM (inactive).
Take `CC(C)C(Br)CCC1=CCC(Br)(Br)C1` (configuration not stated): the GI50 in the assay with SF-295 was 17 µM (inactive); in the assay on MDA-MB-231, 5.27 µM (inactive); in the assay on A498, 18.8 µM (inactive); with SF-539, 19.2 µM (inactive); with Hs-578T, 18.6 µM (inactive); in the assay with DU-145, 18.4 µM (inactive). Also, the GI50 is 17.5 µM (inactive) in the assay on TK-10; 16.7 µM (inactive) with NCI-H460; 16.7 µM (inactive) in the assay on OVCAR-5; 10.5 µM (inactive) with MDA-MB-435; 10.8 µM (inactive) with MCF7; 5.45 µM (inactive) in the assay with SK-MEL-5. Further, the GI50 in the assay with HOP-92 is 5.2 µM (inactive); with K562 it was 4.57 µM (inactive); in the assay on NCI-H522, 2.35 µM (inactive); with CCRF-CEM, 2.79 µM (inactive); in the assay with SK-MEL-28 it was 15.6 µM (inactive); with IGROV-1 it was 3.21 µM (inactive).
For the compound `CC(=O)NC(C)c1ccc(/N=N/N2CCCC2)cc1` (configuration not stated), the GI50 in the assay with SF-295, in the assay on MDA-MB-231, in the assay on A498, in the assay with SF-539, in the assay on Hs-578T and in the assay on DU-145 was > 100 µM (inactive) each time. The GI50 in the assay on TK-10, with OVCAR-8, with OVCAR-5, with MDA-MB-435, in the assay on MCF7 and in the assay on SK-MEL-5 was > 100 µM (inactive) each time. For the same compound, the GI50 in the assay on HOP-92, with NCI-H522, in the assay on CCRF-CEM, with SK-MEL-28 and with IGROV-1 was > 100 µM (inactive) throughout.
`CC(=O)Nc1ncc(Sc2ccccc2C(=O)O)s1`: the GI50 in the assay with SF-295, in the assay on MDA-MB-231, with A498, in the assay with SF-539, in the assay on Hs-578T and in the assay on DU-145 was > 100 µM (inactive) throughout. Also, the GI50 in the assay on TK-10, in the assay with OVCAR-8, in the assay on NCI-H460, with OVCAR-5, in the assay on MDA-MB-435 and in the assay on MCF7 was > 100 µM (inactive) throughout. Moreover, the GI50 in the assay with SK-MEL-5, in the assay with HOP-92, with K562, in the assay with CCRF-CEM, in the assay with SK-MEL-28 and with RPMI-8226 was > 100 µM (inactive) in each case. The GI50 in the assay with IGROV-1 is > 100 µM (inactive).
For `C=CCC1(OC(C)=O)C2OC(=O)C1(O)OCC2O` (configuration not stated), the GI50 in the assay with SF-295, with MDA-MB-231, in the assay on A498, with SF-539, with Hs-578T and in the assay on DU-145 was > 100 µM (inactive) each time. Moreover, the GI50 is > 70.8 µM (inactive) with TK-10; > 100 µM (inactive) with OVCAR-8; > 100 µM (inactive) with NCI-H460; > 100 µM (inactive) with OVCAR-5; > 100 µM (inactive) with MDA-MB-435; > 100 µM (inactive) with MCF7. Also, the GI50 with SK-MEL-5, in the assay with K562, in the assay with NCI-H522, in the assay on CCRF-CEM, with SK-MEL-28 and with RPMI-8226 was > 100 µM (inactive) throughout. Moreover, in the assay with IGROV-1, the GI50 was > 100 µM (inactive).
Regarding `COc1ccc(OC2OC(CO)C(OCc3ccccc3)C(OCc3ccccc3)C2OCc2ccccc2)cc1` (configuration not stated), the GI50 with SF-295 is 76.7 µM (inactive); in the assay with MDA-MB-231, > 100 µM (inactive); with A498 it was > 100 µM (inactive); in the assay with SF-539, 63.2 µM (inactive); in the assay with Hs-578T it was 56.9 µM (inactive); in the assay with DU-145, > 100 µM (inactive). Moreover, the GI50 in the assay with TK-10 is > 100 µM (inactive); in the assay on OVCAR-8 it was > 100 µM (inactive); in the assay with NCI-H460 it was 15.8 µM (inactive); in the assay with OVCAR-5, > 100 µM (inactive); in the assay on MDA-MB-435, > 100 µM (inactive); with MCF7, 25.9 µM (inactive). The GI50 is 54.8 µM (inactive) in the assay with SK-MEL-5; 6.1 µM (inactive) in the assay on K562; 40 µM (inactive) with NCI-H522; 6.98 µM (inactive) in the assay with CCRF-CEM; > 100 µM (inactive) in the assay on SK-MEL-28; > 100 µM (inactive) with RPMI-8226. Besides, the GI50 with IGROV-1 is > 100 µM (inactive).
For `COc1cc(-c2nc(SC)nc3c2CCc2ccccc2-3)cc(OC)c1OC`, the GI50 in the assay on SF-295 is 91 µM (inactive); in the assay with MDA-MB-231, 28.3 µM (inactive); in the assay with A498, > 100 µM (inactive); in the assay on SF-539 it was 83.4 µM (inactive); in the assay with Hs-578T, > 100 µM (inactive); in the assay with DU-145, 79.8 µM (inactive). The GI50 is 50.6 µM (inactive) in the assay with OVCAR-8; > 100 µM (inactive) in the assay on OVCAR-5; 95.1 µM (inactive) in the assay with MDA-MB-435; 50.1 µM (inactive) with MCF7; 37 µM (inactive) in the assay on SK-MEL-5; > 100 µM (inactive) in the assay on HOP-92. For the same compound, the GI50 with K562 is 22.3 µM (inactive); in the assay on CCRF-CEM it was > 100 µM (inactive); with SK-MEL-28 it was > 100 µM (inactive); in the assay on RPMI-8226 it was 25.8 µM (inactive); in the assay on IGROV-1 it was 65.3 µM (inactive).
Take `CCC(=O)/C(=C\I)c1ccccc1`: the GI50 in the assay with SF-295 was 18.5 µM (inactive); in the assay with MDA-MB-231, 1.75 µM (inactive); in the assay with A498 it was 18.1 µM (inactive); in the assay with SF-539, 18.1 µM (inactive); in the assay on Hs-578T, 5.2 µM (inactive); with DU-145, 7.19 µM (inactive). The GI50 was 15 µM (inactive) in the assay on TK-10; 2 µM (inactive) in the assay on OVCAR-8; 9.86 µM (inactive) in the assay on NCI-H460; 1.84 µM (inactive) with OVCAR-5; 3.36 µM (inactive) in the assay on MDA-MB-435; 1.67 µM (inactive) in the assay on MCF7. Further, the GI50 in the assay on HOP-92 is 2.16 µM (inactive); with K562 it was 0.796 µM (active); with CCRF-CEM, 2.74 µM (inactive); in the assay on SK-MEL-28 it was 2.7 µM (inactive); in the assay on RPMI-8226 it was 3.33 µM (inactive); in the assay with IGROV-1, 1.97 µM (inactive).
Consider `C=CCN1C(=O)CC2[C@@H]3CCc4cc(O)ccc4C3CC[C@]2(C)C1=O` (some centres not stated), for which the GI50 with SF-295, with MDA-MB-231, in the assay on A498, in the assay with SF-539, in the assay with Hs-578T and in the assay with DU-145 was > 10 µM (inactive) throughout. Also, the GI50 in the assay on TK-10, in the assay with OVCAR-8, in the assay with NCI-H460, with OVCAR-5, in the assay on MDA-MB-435 and in the assay on MCF7 was > 10 µM (inactive) throughout. Further, the GI50 in the assay on SK-MEL-5, in the assay on HOP-92, in the assay with K562, in the assay on CCRF-CEM, in the assay with SK-MEL-28 and with RPMI-8226 was > 10 µM (inactive) each time. For the same compound, in the assay on IGROV-1, the GI50 was > 10 µM (inactive).
Regarding `C=C(C)[C@@]12C[C@H](OC(=O)[C@H](O)[C@@H](NC(=O)c3ccccc3)c3ccccc3)C(C)=C1[C@@H](OC(C)=O)C(=O)[C@@]1(C)C([C@@H]2OC(=O)c2cc(F)cc(F)c2)C2(OC(C)=O)CO[C@@H]2C[C@@H]1O` (some centres not stated), the GI50 with SF-295 is > 10 µM (inactive); with MDA-MB-231 it was 0.21 µM (active); in the assay on A498, 0.164 µM (active); in the assay on SF-539 it was 0.0282 µM (active); in the assay with Hs-578T it was 0.0186 µM (active); in the assay on DU-145, 0.267 µM (active). In addition, the GI50 with TK-10 is 0.3 µM (active); in the assay with OVCAR-8, 0.065 µM (active); with NCI-H460 it was 0.0348 µM (active); in the assay with OVCAR-5 it was 0.165 µM (active); in the assay with MDA-MB-435 it was 0.0117 µM (active); in the assay with MCF7, 0.029 µM (active). Moreover, the GI50 with SK-MEL-5 was 0.117 µM (active); in the assay on HOP-92 it was 2.4 µM (inactive); with K562, 0.0361 µM (active); in the assay with CCRF-CEM, 0.0367 µM (active); with SK-MEL-28, 0.363 µM (active); in the assay with RPMI-8226 it was 0.0236 µM (active). Besides, the GI50 in the assay with IGROV-1 is 0.361 µM (active).
Consider `CC(C)(O)[C@@H]1CC[C@](C)(C2[C@@H](O)C[C@@]3(C)C4C[C@H](OC5OCC(O)C(O)C5O)[C@H]5C(C)(C)[C@@H](OC6OCC(O)C(O)C6OC6OCC(O)C(O)C6O)CC[C@@]56C[C@@]46CC[C@]23C)O1` (some centres not stated), for which the GI50 with SF-295, in the assay on MDA-MB-231, in the assay on A498, in the assay with SF-539, in the assay on Hs-578T and with DU-145 was > 100 µM (inactive) each time. The GI50 with OVCAR-8, in the assay with NCI-H460, with OVCAR-5, in the assay with MDA-MB-435, in the assay with MCF7 and with SK-MEL-5 was > 100 µM (inactive) throughout. For the same compound, the GI50 in the assay on K562, with NCI-H522, in the assay on CCRF-CEM, with SK-MEL-28, with RPMI-8226 and in the assay with IGROV-1 was > 100 µM (inactive) each time.
